Reference: patent US20090074815A1, “Immunomodulator Compounds as Vaccine Enhancers” (SCICLONE PHARMACEUTICALS, INC., priority 2005, published 2009)
Like-named read-outs stand apart in the source and are kept apart here.

What was measured:
[1] = test system: leukocytes and lymphocytes in peripheral blood; test: Concentration of leukocytes and lymphocytes in peripheral blood before and after vaccination; format: in vivo, human; details: After vaccination
[2] = test system: splenocytes; test: OvA-induced proliferation of splenocytes of OvA-immunized mice; format: in vivo; details: for Proliferation of splenocytes, Spontaneous, cpm, M ± SD / Proliferation of splenocytes, SI / Proliferation of splenocytes, cpm, M ± SD: OvA/FA
Method: Assessment of Mitogen- and Antigen-Induced Proliferation: […] Antigen-specific proliferation was studied by stimulating thymocytes and splenoctyes in vitro with different concentrations of OvA for 96 h. Twenty (20) to twenty-four (24) hours prior to completion of incubation, 3H-labeled thymidine (5 μCi/ml) was added to the cells. The cells were then transferred to fiberglass filters with a Titertek® semi-automatic cell harvester. Thymidine uptake was measured using a RackBeta 1217 (Wallac) liquid scintillation β-counter. For quantitative analysis of proliferation, the stimulation index (SI) was calculated as a ratio of the intensity of label inclusion in the stimulated cells to that in non-stimulated cells.

[3] = test system: IFN-γ production by OvA-stimulated splenocytes; test: OvA-stimulated production of IFN-γ by splenocytes of OvA-immunized mice; format: in vivo; details: for activity at 0.0001 mg/kg / activity at 0.001 mg/kg / activity at 0.01 mg/kg: Mus musculus, Splenocyte, po, read-out: Production of IFN-γ by splenocytes, % (% of control)
[4] = Patients of group 2 (SCV-07 + vaccine)
[5] = 10.0 μg/kg per os, OvA 10 μg/ml
[6] = 10.0 μg/kg per os, OvA 50 μg/ml
[7] = OvA/Alum, 0.1 μg/kg per os, OvA 0 μg/ml
[8] = OvA/Alum, 0.1 μg/kg per os, OvA 10 μg/ml
[9] = OvA/Alum, 0.1 μg/kg per os, OvA 25 μg/ml
[10] = OvA/Alum, 0.1 μg/kg per os, OvA 50 μg/ml
[11] = OvA/Alum, 0.1 μg/kg per os, OvA 100 μg/ml
[12] = OvA/Alum, 1.0 μg/kg per os, OvA 0 μg/ml
[13] = OvA/Alum, 1.0 μg/kg per os, OvA 10 μg/ml
[14] = OvA/Alum, 1.0 μg/kg per os, OvA 25 μg/ml
[15] = OvA/Alum, 1.0 μg/kg per os, OvA 50 μg/ml
[16] = OvA/Alum, 1.0 μg/kg per os, OvA 100 μg/ml
[17] = OvA/Alum, 10.0 μg/kg per os, OvA 0 μg/ml
[18] = OvA/Alum, 10.0 μg/kg per os, OvA 10 μg/ml
[19] = OvA/Alum, 10.0 μg/kg per os, OvA 25 μg/ml
[20] = OvA/Alum, 10.0 μg/kg per os, OvA 50 μg/ml
[21] = OvA/Alum, 10.0 μg/kg per os, OvA 100 μg/ml
[22] = OvA/Alum, 0.1 μg/kg i/p, OvA 10 μg/ml
[23] = OvA/Alum, 0.1 μg/kg i/p, OvA 25 μg/ml
[24] = OvA/Alum, 0.1 μg/kg i/p, OvA 50 μg/ml
[25] = OvA/Alum, 0.1 μg/kg i/p, OvA 100 μg/ml
[26] = OvA/Alum, 1.0 μg/kg i/p, OvA 25 μg/ml
[27] = OvA/Alum, 1.0 μg/kg i/p, OvA 50 μg/ml
[28] = OvA/Alum, 1.0 μg/kg i/p, OvA 100 μg/ml

N[C@H](CCC(=O)N[C@@H](Cc1c[nH]c2ccccc12)C(=O)O)C(=O)O [SCV-07, γ-D-glutamyl-L-tryptophan]
Leukocytes × 10^9/l ([1]; Healthy subjects (Group III)): 6.04 ± 0.31 10^9/l
Lymphocytes % ([1]; Healthy subjects (Group III)): 19.05 ± 1.13%
Lymphocytes × 10^9/l ([1]; Healthy subjects (Group III)): 1.19 ± 0.11 10^9/l
Lymphocytes % [1, 4]: 27.81 ± 2.04%
Lymphocytes × 10^9/l [1, 4]: 1.608 ± 0.096 10^9/l
Leukocytes × 10^9/l ([1]; Patients of group 2 (infectious syndrome, SCV-07 1 mg i.m. + hepatitis B vaccine)): 5.938 ± 0.351 10^9/l
proliferation of splenocytes versus control group ([2]; OvA/Alum, data not shown): No significant differences
Proliferation of splenocytes, Spontaneous, cpm, M ± SD ([2]; 0.1 μg/kg i/p): 10726 ± 1947 cpm
Proliferation of splenocytes, SI ([2]; 0.1 μg/kg i/p, OvA 10 μg/ml): 1.09
Proliferation of splenocytes, cpm, M ± SD ([2]; 0.1 μg/kg i/p, OvA 10 μg/ml): 11683 ± 2285 cpm
Proliferation of splenocytes, SI ([2]; 0.1 μg/kg i/p, OvA 50 μg/ml): 1.32
Proliferation of splenocytes, cpm, M ± SD ([2]; 0.1 μg/kg i/p, OvA 50 μg/ml): 14195 ± 3304 cpm
Proliferation of splenocytes, Spontaneous, cpm, M ± SD ([2]; 0.1 μg/kg per os): 8786 ± 1259 cpm
Proliferation of splenocytes, SI ([2]; 0.1 μg/kg per os, OvA 10 μg/ml): 1.29
Proliferation of splenocytes, cpm, M ± SD ([2]; 0.1 μg/kg per os, OvA 10 μg/ml): 11304 ± 1317 cpm
Proliferation of splenocytes, SI ([2]; 0.1 μg/kg per os, OvA 50 μg/ml): 1.36
Proliferation of splenocytes, cpm, M ± SD ([2]; 0.1 μg/kg per os, OvA 50 μg/ml): 11923 ± 1623 cpm
Proliferation of splenocytes, Spontaneous, cpm, M ± SD ([2]; 1.0 μg/kg i/p): 9760 ± 1650 cpm
Proliferation of splenocytes, SI ([2]; 1.0 μg/kg i/p, OvA 10 μg/ml): 1.05
Proliferation of splenocytes, cpm, M ± SD ([2]; 1.0 μg/kg i/p, OvA 10 μg/ml): 10260 ± 2808 cpm
Proliferation of splenocytes, SI ([2]; 1.0 μg/kg i/p, OvA 50 μg/ml): 1.67
Proliferation of splenocytes, cpm, M ± SD ([2]; 1.0 μg/kg i/p, OvA 50 μg/ml): 16313 ± 1057 cpm
Proliferation of splenocytes, Spontaneous, cpm, M ± SD ([2]; 1.0 μg/kg per os): 7013 ± 1698 cpm
Proliferation of splenocytes, SI ([2]; 1.0 μg/kg per os, OvA 10 μg/ml): 1.26
Proliferation of splenocytes, cpm, M ± SD ([2]; 1.0 μg/kg per os, OvA 10 μg/ml): 8864 ± 2675 cpm
Proliferation of splenocytes, SI ([2]; 1.0 μg/kg per os, OvA 50 μg/ml): 1.49
Proliferation of splenocytes, cpm, M ± SD ([2]; 1.0 μg/kg per os, OvA 50 μg/ml): 10457 ± 1740 cpm
Proliferation of splenocytes, Spontaneous, cpm, M ± SD ([2]; 10.0 μg/kg per os): 10665 ± 887 cpm
Proliferation of splenocytes, SI [2, 5]: 1.27
Proliferation of splenocytes, cpm, M ± SD [2, 5]: 13585 ± 1102 cpm
Proliferation of splenocytes, SI [2, 6]: 1.21
Proliferation of splenocytes, cpm, M ± SD [2, 6]: 12903 ± 881 cpm
activity at 0.0001 mg/kg [3, 7]: 100%
activity at 0.0001 mg/kg [3, 8]: 124%
activity at 0.0001 mg/kg [3, 9]: 150%
activity at 0.0001 mg/kg [3, 10]: 150%
activity at 0.0001 mg/kg [3, 11]: 158%
activity at 0.001 mg/kg [3, 12]: 100%
activity at 0.001 mg/kg [3, 13]: 98.3%
activity at 0.001 mg/kg [3, 14]: 103%
activity at 0.001 mg/kg [3, 15]: 103%
activity at 0.001 mg/kg [3, 16]: 122%
activity at 0.01 mg/kg [3, 17]: 100%
activity at 0.01 mg/kg [3, 18]: 47.9%
activity at 0.01 mg/kg [3, 19]: 119%
activity at 0.01 mg/kg [3, 20]: 119%
activity at 0.01 mg/kg [3, 21]: 140%
activity at 0.0001 mg/kg ([3]; OvA/FA, 0.1 μg/kg per os, OvA 0 μg/ml): 100%
activity at 0.0001 mg/kg ([3]; OvA/FA, 0.1 μg/kg per os, OvA 10 μg/ml): 119%
activity at 0.0001 mg/kg ([3]; OvA/FA, 0.1 μg/kg per os, OvA 25 μg/ml): 121%
activity at 0.0001 mg/kg ([3]; OvA/FA, 0.1 μg/kg per os, OvA 50 μg/ml): 142%
activity at 0.0001 mg/kg ([3]; OvA/FA, 0.1 μg/kg per os, OvA 100 μg/ml): 136%
activity at 0.001 mg/kg ([3]; OvA/FA, 1.0 μg/kg per os, OvA 0 μg/ml): 100%
activity at 0.001 mg/kg ([3]; OvA/FA, 1.0 μg/kg per os, OvA 10 μg/ml): 128%
activity at 0.001 mg/kg ([3]; OvA/FA, 1.0 μg/kg per os, OvA 25 μg/ml): 87.3%
activity at 0.001 mg/kg ([3]; OvA/FA, 1.0 μg/kg per os, OvA 50 μg/ml): 116%
activity at 0.001 mg/kg ([3]; OvA/FA, 1.0 μg/kg per os, OvA 100 μg/ml): 113%
activity at 0.01 mg/kg ([3]; OvA/FA, 10.0 μg/kg per os, OvA 0 μg/ml): 100%
activity at 0.01 mg/kg ([3]; OvA/FA, 10.0 μg/kg per os, OvA 10 μg/ml): 83.7%
activity at 0.01 mg/kg ([3]; OvA/FA, 10.0 μg/kg per os, OvA 25 μg/ml): 66.2%
activity at 0.01 mg/kg ([3]; OvA/FA, 10.0 μg/kg per os, OvA 50 μg/ml): 75.9%
activity at 0.01 mg/kg ([3]; OvA/FA, 10.0 μg/kg per os, OvA 100 μg/ml): 74.8%
Production of IFN-γ by splenocytes ([3]; OvA/Alum, 0.1 μg/kg i/p, OvA 0 μg/ml): 9365 pg/mL
Production of IFN-γ by splenocytes [3, 22]: 8816 pg/mL
Production of IFN-γ by splenocytes, % (% of control) [3, 22]: 94.1%
Production of IFN-γ by splenocytes [3, 23]: 8028 pg/mL
Production of IFN-γ by splenocytes, % (% of control) [3, 23]: 85.7%
Production of IFN-γ by splenocytes [3, 24]: 8028 pg/mL
Production of IFN-γ by splenocytes, % (% of control) [3, 24]: 85.7%
Production of IFN-γ by splenocytes [3, 25]: 8048 pg/mL
Production of IFN-γ by splenocytes, % (% of control) [3, 25]: 85.9%
Production of IFN-γ by splenocytes [3, 7]: 4642 pg/mL
Production of IFN-γ by splenocytes [3, 8]: 5775 pg/mL
Production of IFN-γ by splenocytes [3, 9]: 6969 pg/mL
Production of IFN-γ by splenocytes [3, 10]: 6969 pg/mL
Production of IFN-γ by splenocytes [3, 11]: 7310 pg/mL
Production of IFN-γ by splenocytes ([3]; OvA/Alum, 1.0 μg/kg i/p, OvA 0 μg/ml): 7129 pg/mL
Production of IFN-γ by splenocytes ([3]; OvA/Alum, 1.0 μg/kg i/p, OvA 10 μg/ml): 9986 pg/mL
Production of IFN-γ by splenocytes [3, 26]: 7982 pg/mL
Production of IFN-γ by splenocytes, % (% of control) [3, 26]: 112.0%
Production of IFN-γ by splenocytes [3, 27]: 7982 pg/mL
Production of IFN-γ by splenocytes, % (% of control) [3, 27]: 112.0%
Production of IFN-γ by splenocytes [3, 28]: 8155 pg/mL
Production of IFN-γ by splenocytes, % (% of control) [3, 28]: 114.4%
Production of IFN-γ by splenocytes [3, 12]: 5620 pg/mL
Production of IFN-γ by splenocytes [3, 13]: 5523 pg/mL
Production of IFN-γ by splenocytes [3, 14]: 5795 pg/mL
Production of IFN-γ by splenocytes [3, 15]: 5795 pg/mL
Production of IFN-γ by splenocytes [3, 16]: 6860 pg/mL
Production of IFN-γ by splenocytes [3, 17]: 4266 pg/mL
Production of IFN-γ by splenocytes [3, 18]: 2045 pg/mL
Production of IFN-γ by splenocytes [3, 19]: 5066 pg/mL
Production of IFN-γ by splenocytes [3, 20]: 5066 pg/mL
Production of IFN-γ by splenocytes [3, 21]: 5976 pg/mL
Production of IFN-γ by splenocytes, % (% of control) ([3]; OvA/FA, 0.1 μg/kg i/p, OvA 10 μg/ml): 126.6%
Production of IFN-γ by splenocytes, % (% of control) ([3]; OvA/FA, 0.1 μg/kg i/p, OvA 25 μg/ml): 89.3%
Production of IFN-γ by splenocytes, % (% of control) ([3]; OvA/FA, 0.1 μg/kg i/p, OvA 50 μg/ml): 118.0%
Production of IFN-γ by splenocytes, % (% of control) ([3]; OvA/FA, 0.1 μg/kg i/p, OvA 100 μg/ml): 124.3%
Production of IFN-γ by splenocytes, % (% of control) ([3]; OvA/FA, 1.0 μg/kg i/p, OvA 10 μg/ml): 139.0%
Production of IFN-γ by splenocytes, % (% of control) ([3]; OvA/FA, 1.0 μg/kg i/p, OvA 25 μg/ml): 112.2%
Production of IFN-γ by splenocytes, % (% of control) ([3]; OvA/FA, 1.0 μg/kg i/p, OvA 50 μg/ml): 99.0%
Production of IFN-γ by splenocytes, % (% of control) ([3]; OvA/FA, 1.0 μg/kg i/p, OvA 100 μg/ml): 89.6%
